Test results from paper PMC10367051, “Comprehensive Mechanistic View of the Hydrolysis of Oxadiazole-Based Inhibitors by Histone Deacetylase 6 (HDAC6)” (ACS Chemical Biology, 2023).
Residue numbers refer to the chain shown, from its start.

Experiments:
wild-type zHDAC6 = biological target: T1, wild-type zHDAC6 (Danio rerio, UniProt F8W4B7); assay: Inhibitor hydrolysis in vitro by purified wild-type HDAC6 (LC-MS/MS); assay type: biochemical; details: 20 μM 8, 2 μM zHDAC6, 30 °C
T1 construct: Danio rerio HDAC6 (amino acids 440–798; zHDAC6); His (N, cleaved yes); MBP (N, cleaved yes); made in house; host or cells: RIPL Escherichia coli
T1 sequence (F8W4B7 440-798): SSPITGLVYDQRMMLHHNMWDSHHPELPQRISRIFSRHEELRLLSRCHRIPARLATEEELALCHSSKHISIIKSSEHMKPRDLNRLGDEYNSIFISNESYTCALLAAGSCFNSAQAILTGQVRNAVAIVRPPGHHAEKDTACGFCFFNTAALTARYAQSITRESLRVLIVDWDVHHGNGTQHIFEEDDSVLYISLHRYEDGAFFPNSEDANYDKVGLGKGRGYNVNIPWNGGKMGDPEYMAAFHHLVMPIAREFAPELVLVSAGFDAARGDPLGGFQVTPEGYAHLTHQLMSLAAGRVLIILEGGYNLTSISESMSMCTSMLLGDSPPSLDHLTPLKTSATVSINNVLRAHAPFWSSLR
Procedure: The second catalytic domain of Danio rerio HDAC6 (amino acids 440–798; zHDAC6) was expressed in RIPL Escherichia coli as described previously using the pEC566-zHDAC6 expression vector.[16],[38] Briefly, bacteria were incubated at 37 °C with shaking (250 rpm) until the optical density reached an OD600 = 0.5. Then, the culture was cooled to 18 °C for 1 h, and recombinant protein expression was induced by the addition of 75 μM isopropyl β-D-1-thiogalactopyranoside together with 200 μM ZnSO4. The culture was grown at 18 °C for an additional 18 h and harvested by centrifugation at 5500g for 15 min. […] The purity of protein preparations was monitored by SDS-PAGE (Figure S2).
(§1) Mass spectrometry quantification of inhibitors/reaction products was carried out with a Shimadzu LCMS-8040 instrument (Shimadzu, HPLC Prominence system). […] Multiple reaction monitoring (MRM) parameters were optimized for each analyte, and corresponding major CID fragments were used for quantification. Analytes were quantified using corresponding calibration curves generated from pure compounds dissolved in water.
[…] Four microliter aliquots of reaction mixtures were injected into the system directly from the 96-well plate, and inhibitors/reaction products were quantitated as described above.

HDAC6(H574A) mutant = biological target: T2, HDAC6(H574A) mutant (Danio rerio, UniProt F8W4B7, H574A); assay: Inhibitor hydrolysis in vitro by HDAC6(H574A) mutant (LC-MS/MS); assay type: biochemical; details: 20 μM compound, 2 μM enzyme, 30 °C
T2 construct: Danio rerio HDAC6 (amino acids 440–798; zHDAC6); His (N, cleaved yes); MBP (N, cleaved yes); made in house; host or cells: RIPL Escherichia coli
T2 sequence (F8W4B7 440-798 H574A): T1 sequence (F8W4B7 440-798) with H135A
Procedure: The zHDAC6 mutants (Y745F and H574A) were constructed using the Quick-change site-directed mutagenesis protocol with the pEC566-zHDAC6 expression plasmid as a template. Both mutants were expressed and purified as described above for wild-type zHDAC6 (Figure S2).
(§2) Mass spectrometry quantification of inhibitors/reaction products was carried out with a Shimadzu LCMS-8040 instrument (Shimadzu, HPLC Prominence system). Analytes were separated on a Kinetex XB-C18 2.6 μm, 100 Å column (50 × 2.1 mm; Phenomenex) in a linear 15–60% CH3CN/H2O gradient containing 0.1% formic acid at a flow rate of 0.8 mL min^–1 over 4 min. Multiple reaction monitoring (MRM) parameters were optimized for each analyte, and corresponding major CID fragments were used for quantification. Analytes were quantified using corresponding calibration curves generated from pure compounds dissolved in water.
[…] […] Four microliter aliquots of reaction mixtures were injected into the system directly from the 96-well plate, and inhibitors/reaction products were quantitated as described above.

HEK293T cell lysates = assay: Inhibitor hydrolysis in HEK293T cell lysates (LC-MS/MS); assay type: in vitro ADME; details: 20 μM 8, 2.5 mg mL^–1 protein, 37 °C
Procedure: as §2
HEK293T cells and the HEK293T cell line stably transfected with human HDAC6 were grown in FreeStyle 293 medium supplemented with 1% FBS. Cells were harvested by centrifugation at 500g for 5 min, and cell pellets were resuspended in the lysis buffer (50 mM HEPES, 140 mM NaCl, 10 mM KCl, and 0.5% NP-40 at pH 7.4). Following short sonication (3 × 5 s), the cell lysates were centrifuged at 20,000g for 10 min, supernatants were transferred to fresh tubes, and the total protein concentration was adjusted to 4 mg mL^–1 by the addition of the lysis buffer. […] Following 15 min incubation on ice, stopped reactions were centrifuged at 20,000g for 10 min, and supernatants were analyzed by LC–MS as described above.

[1] = test system: HEK293/HDAC6 cell lysates (stably transfected with human HDAC6); assay: Inhibitor hydrolysis in HEK293/HDAC6 cell lysates (LC-MS/MS); assay type: in vitro ADME; details: 20 μM 8, 2.5 mg mL^–1 protein, 37 °C
Procedure: HEK293 cells stably transduced with full-length human HDAC6 were generated following the protocol published previously.[40] Briefly, Lenti-X 293T and HEK293T cells were grown in T75 flasks in the DMEM/F-12/10% fetal bovine serum (FBS) medium under an atmosphere containing 5% CO2 at 37 °C. The Lenti-X 293T cells were transfected with the combination of pMD.2G, psPAX2, and pHR_CMV_MM320_hsHD6 (Figure S2) using Lipofectamine2000 (Invitrogen) according to the manufacturer’s protocol. Three days post-transfection, the virion-rich medium was collected by centrifugation, supplemented with polybrene (final concentration 10 μg mL^–1), and added to adherent HEK293T cells grown to 100% confluency. Three days post-infection, transduced HEK293T cells were expanded in FreeStyle 293 medium (GIBCO) supplemented with 1% FBS in an Erlenmeyer flask (suspension culture, 110 RPM). Transduction efficacy was determined by flow cytometry analysis to be >95%.
as §1, with “water. […]” for “water.”

CS(=O)(=O)N(Cc1ccc(-c2nnc(C(F)F)o2)cn1)c1cccc(Cl)c1 [compound 8]
time of near-complete depletion of the inhibitor (wild-type zHDAC6): approximately 120 min | time to full hydrolysis of the inhibitor (wild-type zHDAC6): < 180 min | hydrolysis by the HDAC6(H574A) mutant (HDAC6(H574A) mutant): no hydrolysis was observed | hydrolysis in HEK293T cell lysate (HEK293T cell lysates): hydrolyzed 8 to 6 and 4 | efficiency of hydrolysis in HEK293/HDAC6 lysate versus HEK293 lysate [1]: more efficient | hydrolysis in HEK293/HDAC6 cell lysate [1]: hydrolyzed 8 to 6 and 4
